Assay results: US12696902B2, “Pesticidal pyrazole and triazole derivatives” (priority 2019, dated 2026)

Columns and labels:
Format in all cases: in vivo
[1] = test system: Boll Weevil (Anthonomus grandis); assay: Action on boll weevil, egg and larval mortality on insect diet in microtiter plates; settings: 120 h, A. grandis eggs on insect diet, egg and larval mortality after 5 days, read-out: mortality in comparison with untreated controls
Procedure: For evaluating control of boll weevil (Anthonomus grandis) the test unit consisted of 96-well-microtiter plates containing an insect diet and 5-10 A. grandis eggs.
The compounds were formulated using a solution containing 75% (v/v) water and 25% (v/v) DMSO. Different concentrations of formulated compounds were sprayed onto the insect diet at 5 μl, using a custom built micro atomizer, at two replications.
After application, microtiter plates were incubated at about 25+1° C. and about 75+5% relative humidity for 5 days. Egg and larval mortality were then visually assessed.

[2] = test system: Yellow Fever Mosquito (Aedes aegypti); assay: whole plant or invertebrate; settings: 48 h, freshly hatched A. aegypti larvae, larval mortality visually assessed after 2 days, read-out: mortality in comparison with untreated controls
Procedure: For evaluating control of yellow fever mosquito (Aedes aegypti) the test unit consisted of 96-well-microtiter plates containing 200 μl of tap water per well and 5-15 freshly hatched A. aegypti larvae.
The active compounds or mixtures were formulated using a solution containing 75% (v/v) water and 25% (v/v) DMSO. Different concentrations of formulated compounds or mixtures were sprayed onto the insect diet at 2.5 μl, using a custom built micro atomizer, at two replications. For experimental mixtures in these tests identical volumes of both mixing partners at the desired concentrations respectively, were mixed together.
After application, microtiter plates were incubated at 28±1° C., 80±15% RH for 2 days. Larval mortality was then visually assessed.

[3] = test system: Diamond Back Moth (Plutella xylostella); assay: Action on diamond back moth, cabbage leaf dip; settings: foliar, 3rd instar larvae on dipped cabbage leaves, 72 hours after treatment, read-out: mortality in comparison with untreated controls
Procedure: The active compound is dissolved at the desired concentration in a mixture of 1:1 (v/v) distilled water:acetone. Surfactant (Kinetic® HV) is added at a rate of 0.01% (v/v). The test solution is prepared at the day of use.
Leaves of cabbage were dipped in test solution and air-dried. Treated leaves were placed in petri dishes lined with moist filter paper and inoculated with ten 3rd instar larvae. Mortality was recorded 72 hours after treatment. Feeding damages were also recorded using a scale of 0-100%.

[4] = test system: Tobacco Budworm (Heliothis virescens); assay: Action on tobacco budworm, egg and larval mortality on insect diet in microtiter plates; settings: 120 h, H. virescens eggs on insect diet, egg and larval mortality after 5 days, read-out: mortality in comparison with untreated controls
Procedure: For evaluating control of tobacco budworm (Heliothis virescens) the test unit consisted of 96-well-microtiter plates containing an insect diet and 15-25 H. virescens eggs.
The compounds were formulated using a solution containing 75% v/v water and 25% v/v DMSO. Different concentrations of formulated compounds were sprayed onto the insect diet at 10 μl, using a custom built micro atomizer, at two replications.
After application, microtiter plates were incubated at about 28+1° C. and about 80+5% relative humidity for 5 days. Egg and larval mortality were then visually assessed.

[5] = test system: Orchid Thrips (Dichromothrips corbetti); assay: Action on orchid thrips, floral-immersion technique; settings: adult thrips, 72 hours after treatment, read-out: mortality in comparison with untreated controls
Procedure: Dichromothrips corbetti adults used for bioassay were obtained from a colony maintained continuously under laboratory conditions. For testing purposes, the test compound is diluted in a 1:1 mixture of acetone:water (vol:vol), plus Kinetic® HV at a rate of 0.01% v/v.
Thrips potency of each compound was evaluated by using a floral-immersion technique. All petals of individual, intact orchid flowers were dipped into treatment solution and allowed to drying Petri dishes. Treated petals were placed into individual re-sealable plastic along with about 20 adult thrips. All test arenas were held under continuous light and a temperature of about 28° C. for duration of the assay. After 3 days, the numbers of live thrips were counted on each petal. The percent mortality was recorded 72 hours after treatment.

[6] = test system: Southern Armyworm (Spodoptera eridania), 2nd Instar Larvae; assay: Action on southern armyworm 2nd instar larvae on sprayed lima bean plants; settings: 96 h, 4 days after treatment, read-out: mortality in comparison with untreated controls
Procedure: The active compounds were formulated by a Tecan liquid handler in 100% cyclohexanone as a 10,000 ppm solution supplied in tubes. The 10,000 ppm solution was serially diluted in 100% cyclohexanone to make interim solutions. These served as stock solutions for which final dilutions were made by the Tecan in 50% acetone:50% water (v/v) into 10 or 20 ml glass vials. A nonionic surfactant (Kinetic®) was included in the solution at a volume of 0.01% (v/v). The vials were then inserted into an automated electrostatic sprayer equipped with an atomizing nozzle for application to plants/insects.
Lima bean plants (variety Sieva) were grown 2 plants to a pot and selected for treatment at the 1st true leaf stage. Test solutions were sprayed onto the foliage by an automated electrostatic plant sprayer equipped with an atomizing spray nozzle. The plants were dried in the sprayer fume hood and then removed from the sprayer. Each pot was placed into perforated plastic bags with a zip closure. About 10 to 11 armyworm larvae were placed into the bag and the bags zipped closed. Test plants were maintained in a growth room at about 25° C. and about 20-40% relative humidity for 4 days, avoiding direct exposure to fluorescent light (24 hour photoperiod) to prevent trapping of heat inside the bags. Mortality and reduced feeding were assessed 4 days after treatment, compared to untreated control plants.

Cc1nn(-c2ccc(/C=N/NC(=S)Nc3ccccc3C(C)C)cc2)cc1NC(=O)c1ccc2c(c1)OC(F)(F)O2 [Compound C-16, 2,2-difluoro-N-[1-[4-[(E)-[(2-isopropylphenyl)carbamothioylhydrazono]methyl]phenyl]-3-methyl-pyrazol-4-yl]-1,3-benzodioxole-5-carboxamide]
mortality at 800 ppm [1]: ≥ 75% | mortality at 800 ppm [2]: ≥ 50% | mortality at 500 ppm [3]: ≥ 75% | mortality at 800 ppm [4]: ≥ 75% | mortality at 500 ppm [5]: ≥ 75% | mortality at 300 ppm [6]: ≥ 75%

Cc1nn(-c2ccc(/C=N/N=C3\SCC(=O)N3c3ccccc3C(C)C)cc2)cc1NC(=O)c1ccc2c(c1)OC(F)(F)O2 [Compound C-17, 2,2-difluoro-N-[1-[4-[(E)-[(Z)-[3-(2-isopropylphenyl)-4-oxo-thiazolidin-2-ylidene]hydrazono]methyl]phenyl]-3-methyl-pyrazol-4-yl]-1,3-benzodioxole-5-carboxamide]
mortality at 800 ppm [1]: ≥ 75% | mortality at 800 ppm [2]: ≥ 50% | mortality at 500 ppm [3]: ≥ 75% | mortality at 800 ppm [4]: ≥ 75% | mortality at 300 ppm [6]: ≥ 75%

Cc1cc(/C=N/N2C(=O)CS/C2=N\c2ccccc2C(C)C)ccc1-n1cc(NC(=O)c2ccc(OC(F)(F)F)cc2)c(C)n1 [Compound C-11, N-[1-[4-[(E)-[(2Z)-2-(2-isopropylphenyl)imino-4-oxo-thiazolidin-3-yl]iminomethyl]-2-methyl-phenyl]-3-methyl-pyrazol-4-yl]-4-(trifluoromethoxy)benzamide]
mortality at 800 ppm [1]: ≥ 75% | mortality at 800 ppm [2]: ≥ 50% | mortality at 500 ppm [3]: ≥ 75% | mortality at 800 ppm [4]: ≥ 75% | mortality at 300 ppm [6]: ≥ 75%

Cc1nn(-c2ccc(/C=N/N3C(=O)CS/C3=N\c3ccccc3C(C)C)cc2)cc1C(=N)Nc1ccc(OC(F)(F)F)cc1 [Compound C-53, 1-[4-[(E)-[(2Z)-2-(2-isopropylphenyl)imino-4-oxo-thiazolidin-3-yl]iminomethyl]phenyl]-3-methyl-N-[4-(trifluoromethoxy)phenyl]pyrazole-4-carboxamidine]
mortality at 800 ppm [1]: ≥ 75% | mortality at 800 ppm [2]: ≥ 50% | mortality at 500 ppm [3]: ≥ 75% | mortality at 800 ppm [4]: ≥ 75% | mortality at 300 ppm [6]: ≥ 75%

Cc1nn(-c2ccc(/C=N/NC(=S)Nc3ccccc3C(C)C)cc2)cc1C(=N)Nc1ccc(OC(F)(F)F)cc1 [Compound C-52, 1-(2-isopropylphenyl)-3-[(E)-[4-[3-methyl-4-[N-[4-(trifluoromethoxy)phenyl]carbamimidoyl]pyrazol-1-yl]phenyl]methyleneamino] thiourea]
mortality at 800 ppm [1]: ≥ 75% | mortality at 800 ppm [2]: ≥ 50% | mortality at 500 ppm [3]: ≥ 75% | mortality at 800 ppm [4]: ≥ 75% | mortality at 500 ppm [5]: ≥ 75% | mortality at 300 ppm [6]: ≥ 75%
